Reference: US20230310643A1, “EXTRACORPOREAL CLEARING TRAPS BASED ON INVERSE ELECTRON DEMAND DIELS-ALDER CYCLOADDITION FOR (PRE)-TARGETED THERAPY AND DIAGNOSTICS” (RIGSHOSPITALET, priority 2020, published 2023)
Counter-ions that a name gives are not always drawn.

How the values were obtained:
[1] = Trapping of TCO-KS254 from PBS solution by tetrazine-agarose columns, eluate titrated with [111In]8; conditions: for Trapping efficiencies of TCO-KS254 polymer compared with resins with shorter or no linker (tetrazines 1, 3 and 5): comparison in words, longer linkers; for % TE mean ± SD, 2nd evaluation, TCO-KS254: repeated 9 days after first evaluation, columns stored at 4° C.; for % TE mean ± SD, 2nd evaluation, TCO-KS254 / % TE mean ± SD, 1st evaluation, TCO-KS254: n = 2; for % TE mean ± SD, 1st evaluation, TCO-KS254: trapping efficiency, single pass, 100 μg/mL in PBS, 0.5 mL/min
Procedure: (§1) Tetrazine-agarose columns, two for each tetrazine, each prepared from 33 mg of dry NHS-agarose as described above (bed volume approx. 0.25 mL), and a control column prepared from tetrazine-free agarose, were equilibrated with 2-3 bed volumes of PBS. Antibody TCO-CC49 (approx. 1 TCO groups per 20 kDa molecular weight) or polymer TCO-KS254 (approx. 1 TCO group per 5 kDa molecular weight) were dissolved in PBS with to a mass concentration of 100 μg/mL. Aliquots of these solutions (0.4 mL) were pumped through the tetrazine-agarose columns at 0.5 mL/min pumping speed using an infusion pump (AL-1000, World Precision Instruments). When all solution had entered the resin bed, an aliquot of PBS (0.4 mL) was immediately added on top of it and pumped through the column at 0.5 mL/min. Total eluate (total volume approx. 0.8 mL) was collected and the amount of TCO-CC49 or TCO-KS254 was determined by ^111In-tetrazine ([^111In]8) titration.
(§2) For each column, trapping of both TCO-CC49 and TCO-KS254 was tested, and the column was rinsed with 2-3 volumes of PBS between tests. For pairs of columns with the same tetrazine, the order of testing (TCO-CC49 first or TCO-KS254 first) for one column was opposite to the order of testing for another column.
(§3) An aliquot of each trapping column eluate (6 μL) was mixed with an equal volume of 10 μM [111In]8 solution. Resulting mixtures were shaken at 37° C. for at least 1 hour to ensure full consumption of reactive TCO moieties. Then NuPage LDS Sample buffer was added to all mixtures according to the supplier's instructions, samples were heated for 10 min at 70° C. and applied on the NuPAGE 4-12% Bis-Tris SDS-PAGE gels. SDS-PAGE was run in MES-SDS buffer at 150V for 40-45 min. Separation was monitored by running SeeBlue® Plus2 Pre-Stained Protein Standard along with radiolabeled polymer samples. Control mixtures of 6 μL of [^111In]8 solution with 6 μL of PBS and reference mixtures of 6 μL of [^111In]8 solution and 6 μL of 50 μg/mL solutions of TCO-CC49 or TCO-KS254 were prepared and processed in the same manner. Developed gels were exposed against phosphor storage screens (PerkinElmer Multisensitive), which were then read in the Cyclone Plus phosphorimager (Packard Instruments, USA). Autoradiograms were quantified using Optiquant 3.0 software (Packard Instruments). Molecular weight reference ladder from the photo of the same gel aligned and merged to the autoradiogram is shown to the left in FIG. 8. Radioactivity found in the section of the gel corresponding to molecular weights of 60 kDa and above (using SeeBlue standards as reference) was considered polymer-bound or antibody-bound.
(§4) Trapping efficiency (TE) was calculated according to the formula:
(§5) % TE=100%×(1−% BTz/% BnoTz),
(§6) where % BTz is the percentage of polymer/antibody bound ^111In activity in the eluate collected from a column with tetrazine-conjugated agarose, while % BnoTz is the percentage of polymer/antibody bound ^111In activity in the eluate collected from a control column with tetrazine-free agarose.
(§7) For each column, evaluation of trapping efficiency for TCO-CC49 and TCO-KS254 was repeated 9 days after the first evaluation. In between evaluations, the columns were stored at 4° C. in phosphate-buffered saline with 0.1% vol/vol of ProClin™ 150 (Sigma-Aldrich).

TCO-CC49 = test: Trapping of TCO-CC49 from PBS solution by tetrazine-agarose columns, eluate titrated with [111In]8; conditions: n = 2; for % TE mean ± SD, 2nd evaluation, TCO-CC49: repeated 9 days after first evaluation, columns stored at 4° C.; for % TE mean ± SD, 1st evaluation, TCO-CC49: trapping efficiency, single pass, 100 μg/mL in PBS, 0.5 mL/min
Procedure: as §1, §2, §3, §4, §5, §6, §7

[2] = Dissolution of amino-tetrazine in phosphate-buffered saline; format: physicochemical; conditions: PBS, 120 mM NaCl, 10 mM phosphate buffer pH 7.4
Procedure: Amino-tetrazine (1-6) was dissolved in phosphate-buffered saline (PBS, 120 mM NaCl, 10 mM phosphate buffer pH 7.4) to a concentration of 4 mM (tetrazine 5 could only be dissolved to a concentration of 2.7 mM). This solution was added to dry NHS-activated agarose resin (Pierce/Thermo Fisher Scientific) at the ratio of 1 mL solution per 60 mg resin. The resin was shaken in a plastic tube with a filter frit for 2-3 h at room temperature, then tetrazine solution was removed by vacuum filtration, and the resin was washed 3 times with PBS at the same mL-per-mg resin ratio. After that, Tris-HCl buffer (0.5M, pH 7.4) was added to the resin, the resin was shaken for 2-3 h at room temperature or overnight at 4° C. and washed 3 times with PBS. Control resin (tetrazine-free quenched agarose) was prepared in the same way, but pure PBS without amino-tetrazines was used for the initial incubation.

Concentration to which the tetrazine could be dissolved [2] [µM]	Compound	Trapping efficiencies of TCO-KS254 polymer compared with resins with shorter or no linker (tetrazines 1, 3 and 5) [1]	% TE mean ± SD, 2nd evaluation, TCO-KS254 [1] [%]	% TE mean ± SD, 1st evaluation, TCO-KS254 [1] [%]	% TE mean ± SD, 2nd evaluation, TCO-CC49 (TCO-CC49)	% TE mean ± SD, 1st evaluation, TCO-CC49 (TCO-CC49)
	NCCOCCOCCOCCOCCOCCOCCOCCOCCOCCOCCOCCNC(=O)CCCC(=O)NCc1ccc(-c2nncnn2)cc1 [Tetrazine 4, 37,41-dioxo-41-((4-(1,2,4,5-Tetrazin-3-l)benzyl)amino)-3,6,9,12,15,18,21,24,27,30,33-undecaoxa-36-azahentetracontan-1-aminium trifluoroacetate]	lower trapping efficiencies	56 ± 2	75 ± 0.2	92 ± 0.4%	96 ± 6^ %
2700	NCCCCCCCC(=O)Nc1ccc(-c2nnc(-c3ccccn3)nn2)nc1.O=C(O)C(F)(F)F [Tetrazine 5, 8-amino—N-(6-(6-(pyridin-2-yl)-1,2,4,5-tetrazin-3-yl)pyridin-3-yl)octanamide 2,2,2-trifluoroacetate]		67 ± 0.3	85 ± 5	89 ± 3^ %	98 ± 0.4%
	NCCOCCOCCOCCOCCOCCOCCOCCOCCOCCOCCOCCNC(=O)CCCC(=O)Nc1ccc(-c2nnc(-c3ccccn3)nn2)nc1.O=C(O)C(F)(F)F [Tetrazine 6, 37,41-dioxo-41-((6-(6-(pyridin-2-yl)-1,2,4,5-tetrazin-3-yl)pyridin-3-yl)amino)-3,6,9,12,15,18,21,24,27,30,33-undecaoxa-36-azahentetracontan-1-aminium trifluoroacetate]	lower trapping efficiencies	50 ± 6	64 ± 0	72 ± 1^ %	93 ± 7^ %
	NCc1ccc(-c2nncnn2)cc1.O=C(O)C(F)(F)F [Tetrazine 3, (4-(1,2,4,5-Tetrazin-3-yl)phenyl)methanaminium trifluoroacetate]		78 ± 1	93 ± 10	96 ± 0.4%	99 ± 1^ %
